# Patent publication US10961203B2, “Crystalline forms of 3-Z-[1-(4-(N-((4-methyl-piperazin-1-yl)-methylcarbonyl)-N-methyl-amino)-phenylamino)-1-phenyl-methylene]-6-methoxycarbonyl-2-indolinone” (Allgenesis Biotherapeutics Inc., priority 2017, dated 2021)
# Test: Stability test of Crystalline Form F of Nintedanib (XRPD after storage)
# Type: physicochemical
# Settings: polyethylene bag in desiccator, no humidity control, room temperature, three months; FIG. 15 before, FIG. 23 after
# Method: In each example, XRPD experiment was conducted using a Bruker D8 advance diffractometer, with a Cu Ka (wavelength 1.54056 Å) filled tube (40 kV, 40 mA) as the X-ray source having a wide angle goniometer, a 0.6 mm divergent slit, a 2.5° primary Sola slit, a 2.5° secondary Sola slit, an 8 mm anti-scattering slit, a 0.1 mm detector slit, and Lynx Eye detector, at room temperature. In a 2θ continuous scanning mode, the data acquisition was completed with a scanning speed of 2.4°/min and a scanning step of 0.02° in the range of 3° to 40°.
# Crystalline Form F of Nintedanib obtained with the preparation method in Example 5 was placed in a polyethylene plastic bag, the plastic bag was then placed in a desiccator with no humidity control at room temperature for three months (from April 12 to July 12).
structure (smiles),measurement,value
"COC(=O)c1ccc2c(c1)NC(=O)/C2=C(\Nc1ccc(N(C)C(=O)CN2CCN(C)CC2)cc1)c1ccccc1 [Crystalline Form F, 3-Z-[1-(4-(N-((4-methyl-piperazin-1-yl)-methylcarbonyl)-N-methyl-amino)-phenylamino)-1-phenyl-methylene]-6-methoxycarbonyl-2-indolinone]",crystalline form by XRPD after storage (stability of Crystalline Form F),all the measurements showed a result of Crystalline Form F
